# Laboratory results from patent US5468633A, “Human endothelin converting enzyme obtained from blood or placenta” (Nisshin Flour Milling Co., Ltd., priority 1993, dated 1995).
# Tested on: endothelin converting enzyme
# Assay: Effects of various inhibitors on the activity of converting big endothelin-1 to endothelin-1 (residual enzymatic activity)
# Assay type: biochemical, human
# Conditions: 37° C., 30 minutes preincubation, pH 7.0, untreated enzyme = 100
# Protocol: 15 μl of a 20 nmol/ml big endothelin-1 solution was added to 0.3 ml of an enzyme solution (10 mM tris-hydrochloric acid-0.15M sodium chloride buffer; pH 7.0), and the mixture was reacted at 37° C. for 6 hours. After completion of the reaction, 6 μl of a 0.1M EDTA solution was added to terminate the reaction.
# Subsequently, the resultant endothelin-1 was assayed according to a sandwich enzyme immunoassay (EIA) method. An enzymatic activity of converting 1 pmol of big endothelin-1 to endothelin-1 per hour under the above-described reaction conditions is termed 1 U (unit).
# A sample and an endothelin standard solution of a predetermined concentration were respectively applied to a 96-hole microplate on which anti-endothelin monoclonal antibody had been immobilized to thereby cause the reaction. After washing the microplate, peroxidase-labeled anti-endothelin polyclonal antibody was added to thereby cause the reaction. After washing the microplate, activity of bound peroxidase was assayed. Endothelin-1 in the sample was assayed based on the calibration curve drawn by using endothelin standard solutions having a predetermined concentration of endothelin.
# The enzyme of the invention was tested for the effects of various inhibitors against the activity of converting big endothelin-1 to endothelin-1.
# The enzyme was incubated in 0.3 ml of a reaction solution (10 mM tris-hydrochloric acid-0.15M sodium chloride buffer; pH 7.0) containing various inhibitors at 37° C. for 30 minutes, and the residual enzymatic activity was measured in the above-described manner. Residual activities in the presence of various inhibitors are shown in Table 1 as relative activity taking the activity of untreated enzyme as 100.
Relative Activity (%) (inhibitor 0.1 mM),Compound,also measured
0,O=C(O)CNC(=O)C(CS)Cc1ccccc1 (stereo not shown) [Thiorphan],
,CC(C)C[C@H](NC(=O)[C@@H](NC(=O)N[C@@H](Cc1ccccc1)C(=O)O)[C@@H]1CCN=C(N)N1)C(=O)N[C@H](C=O)Cc1ccccc1 [Chymostatin],Relative Activity (%) (inhibitor 0.01 mM): 20%
0,CC(C)C[C@H](NP(=O)(O)O[C@@H]1O[C@@H](C)[C@H](O)[C@@H](O)[C@H]1O)C(=O)N[C@@H](Cc1c[nH]c2ccccc12)C(=O)O [Phosphoramidon],
,O=S(=O)(F)Cc1ccccc1 [Phenylmethanesulfonyl fluoride],Relative Activity (%) (inhibitor 1 mM): 7%
